Earlier results in patent publication US11066448B2, “Zika as a cell penetrating peptide for delivery to the brain” (priority 2018, dated 2021).

Legend:
[1] = enzymatic hydrolysis, doxorubicin release
[2] = human plasma; MMAE linked

Substance | half-life of cleavage [1] [min] | stability relative to Val-Cit [2] | stability relative to hydrazone linker [2]
Phe-Lys | 8 | substantially less stable | –
Val-Lys | 9 | – | –
valine-citrulline [Val-Cit] | 240 | – | over 100 times
